Measurements reported in patent publication US6534494B1, “Process for the preparation of cefuroxime axetil in an amorphous form” (Ranbaxy Laboratories Limited, priority 1998, dated 2003).

Experiments:
[1] = compared with the crystalline form; cited from earlier work
[2] = amorphous form, purity at least 95%; cited from earlier work
[3] = Particle size by scanning electron microscopy; format: physicochemical; conditions: crystalline feed material before milling
Experimental: 30 g of crystalline cefuroxime axetil S isomer with a particle size of 10-300 μm and having a bulk density of 0.391 g/cc, together with 3 g of sodium lauryl sulphate (SLS) were placed in the bowl of a Micros ‘0’ Super Fine Mill. Cold water was circulated through the outer jacket. The mill was operated with main shaft rotation set at 1000 rpm for 120 mins. The inner temperature was maintained in the range from 19-24° C. […] Samples of the material were examined by scanning electron microscopy and by X-ray diffraction crystallography.
Crystalline cefuroxime axetil S isomer with a particle size of 10-300 μm and having a bulk density of 0.391 g/cc, a mixture of crystalline cefuroxime axetil S isomer with crystalline cefuroxime axetil R isomer with a particle size of 5-50 μm, and having a bulk density of 0.221 g/cc. and crystalline cefuroxime axetil R,S racemic mixture were tested for conversion from the crystalline form to an amorphous form in different trials. The feed material consisted of cefuroxime axetil together with sodium lauryl sulphate or cefuroxime axetil together with sodium lauryl sulphate and colloidal silica (Aerosil 200). Samples of the material were withdrawn at various times for X-ray diffraction crystallography using a XRG 3000 diffractometer, and for scanning electron photomicrography. […] The percent crystallinity for the samples from Examples 6-9 was estimated to be less than 5% in all cases confirming the conversion of cefuroxime axetil to a predominantly (at least 95%) amorphous form.

[4] = Bulk density of crystalline feed material; format: physicochemical; conditions: crystalline feed material before milling
[5] = listed as Crystalline cefuroxime axetil S isomer

| particle size [3] | bulk density [4] [g/cc] | particle size [3, 5] | bulk density [4, 5] [g/cc] | Compound | bioavailability [1] | chemical stability [2] |
| --- | --- | --- | --- | --- | --- | --- |
| – | – | – | – | CO/N=C(\C(=O)N[C@@H]1C(=O)N2C(C(=O)OC(C)OC(C)=O)=C(COC(N)=O)CS[C@H]12)c1ccco1 (some centres unmarked) [cefuroxime axetil in amorphous form, cefuroxime axetil] | higher bioavailability than the crystalline form | adequate chemical stability |
| 5-50 μm | 0.221 | – | – | CO/N=C(\C(=O)N[C@@H]1C(=O)N2C(C(=O)OC(C)OC(C)=O)=C(COC(N)=O)CS[C@H]12)c1ccco1 (stereo partly drawn) [crystalline cefuroxime axetil R isomer, cefuroxime axetil] | – | – |
| 10-300 μm | 0.391 | 10-300 μm | 0.391 | CO/N=C(\C(=O)N[C@@H]1C(=O)N2C(C(=O)OC(C)OC(C)=O)=C(COC(N)=O)CS[C@H]12)c1ccco1 (stereo partly drawn) [crystalline cefuroxime axetil S isomer, cefuroxime axetil] | – | – |
